Values quoted from earlier work as cited in patent US20210283075A1, “METHODS OF TREATING ATTENTION DEFICIT HYPERACTIVITY DISORDER” (Ovid Therapeutics, Inc., priority 2018, published 2021).

How the values were obtained:
[1] = compared to lorazepam
5-HT2C = target: T1, 5-HT2C (Homo sapiens, UniProt P28335)
T1 sequence (P28335 33-458): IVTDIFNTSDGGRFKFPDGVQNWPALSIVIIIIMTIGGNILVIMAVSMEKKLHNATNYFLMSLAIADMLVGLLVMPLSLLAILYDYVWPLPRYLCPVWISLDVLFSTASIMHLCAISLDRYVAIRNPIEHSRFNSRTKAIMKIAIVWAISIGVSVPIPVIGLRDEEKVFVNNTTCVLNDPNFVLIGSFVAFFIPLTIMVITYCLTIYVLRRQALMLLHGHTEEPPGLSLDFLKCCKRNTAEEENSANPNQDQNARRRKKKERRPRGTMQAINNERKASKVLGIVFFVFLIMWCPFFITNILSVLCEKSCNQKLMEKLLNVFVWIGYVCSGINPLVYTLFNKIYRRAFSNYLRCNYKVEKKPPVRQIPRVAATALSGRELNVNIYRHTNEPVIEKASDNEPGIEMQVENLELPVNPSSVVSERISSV

[2] = test system: brain-derived neurotrophic factor (BDNF); settings: hypothalamus
[3] = compared to placebo
sigma-1 receptor = sigma-1 receptor (Homo sapiens, UniProt Q99720)
dopamine D3 = dopamine D3 (Homo sapiens, UniProt P35462)
Sequence of dopamine D3 (P35462 whole entry): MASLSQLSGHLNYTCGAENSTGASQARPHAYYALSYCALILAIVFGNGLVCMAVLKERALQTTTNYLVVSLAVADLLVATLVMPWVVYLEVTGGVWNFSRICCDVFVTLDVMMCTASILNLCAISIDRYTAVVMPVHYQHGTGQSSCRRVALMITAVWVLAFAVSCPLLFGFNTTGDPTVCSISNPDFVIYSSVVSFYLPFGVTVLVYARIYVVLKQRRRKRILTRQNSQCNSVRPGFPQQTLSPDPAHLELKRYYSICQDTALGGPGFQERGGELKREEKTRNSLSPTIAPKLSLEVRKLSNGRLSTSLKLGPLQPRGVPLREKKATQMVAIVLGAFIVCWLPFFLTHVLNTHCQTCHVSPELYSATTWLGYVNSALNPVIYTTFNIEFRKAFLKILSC

Sequence of sigma-1 receptor (Q99720 whole entry, species assumed): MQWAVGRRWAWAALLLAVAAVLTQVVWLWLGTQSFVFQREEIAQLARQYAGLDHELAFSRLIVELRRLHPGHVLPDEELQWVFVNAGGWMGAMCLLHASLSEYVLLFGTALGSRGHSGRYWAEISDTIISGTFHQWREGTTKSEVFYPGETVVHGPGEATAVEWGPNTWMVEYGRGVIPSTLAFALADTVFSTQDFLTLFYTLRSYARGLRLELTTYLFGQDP

CCCCSc1ccc(C(SCCN(C)C)c2ccccc2)cc1 (stereo not shown) [Captodiamine, 2-[(4-butylsulfanylphenyl)-phenyl-methyl]sulfanyl-N,N-dimethylethanamine]
concentration and dexterity when driving [1]: improved the concentration and dexterity
tendency to drowsiness ([1]; when driving): without inducing a tendency to drowsiness
activity at 5-HT2C (5-HT2C): 5-HT2C antagonist
BDNF protein levels [2]: increase
severity of benzodiazepine withdrawal symptoms [3]: lower severity of benzodiazepine withdrawal symptoms
activity at sigma-1 receptor (sigma-1 receptor): sigma-1 receptor agonist
activity at dopamine D3 (dopamine D3): dopamine D3 agonist
